Results as given in patent US5756763A, “Pyrrolidine derivatives” (Zaidan Hojin Biseibutsu Kagaku Kenkyukai, priority 1993, dated 1998).

The compounds below were run against T1, prolyl endopeptidase (Sus scrofa, UniProt P23687) (assay: Enzyme inhibitory action on swine kidney-derived prolyl endopeptidase (Z-Gly-Pro-β-naphthylamide substrate)). Details: in vitro, qualitative statement.
T1 construct: swine kidney-derived prolyl endopeptidase; from tissue; host or cells: swine kidney
T1 sequence (P23687 whole entry): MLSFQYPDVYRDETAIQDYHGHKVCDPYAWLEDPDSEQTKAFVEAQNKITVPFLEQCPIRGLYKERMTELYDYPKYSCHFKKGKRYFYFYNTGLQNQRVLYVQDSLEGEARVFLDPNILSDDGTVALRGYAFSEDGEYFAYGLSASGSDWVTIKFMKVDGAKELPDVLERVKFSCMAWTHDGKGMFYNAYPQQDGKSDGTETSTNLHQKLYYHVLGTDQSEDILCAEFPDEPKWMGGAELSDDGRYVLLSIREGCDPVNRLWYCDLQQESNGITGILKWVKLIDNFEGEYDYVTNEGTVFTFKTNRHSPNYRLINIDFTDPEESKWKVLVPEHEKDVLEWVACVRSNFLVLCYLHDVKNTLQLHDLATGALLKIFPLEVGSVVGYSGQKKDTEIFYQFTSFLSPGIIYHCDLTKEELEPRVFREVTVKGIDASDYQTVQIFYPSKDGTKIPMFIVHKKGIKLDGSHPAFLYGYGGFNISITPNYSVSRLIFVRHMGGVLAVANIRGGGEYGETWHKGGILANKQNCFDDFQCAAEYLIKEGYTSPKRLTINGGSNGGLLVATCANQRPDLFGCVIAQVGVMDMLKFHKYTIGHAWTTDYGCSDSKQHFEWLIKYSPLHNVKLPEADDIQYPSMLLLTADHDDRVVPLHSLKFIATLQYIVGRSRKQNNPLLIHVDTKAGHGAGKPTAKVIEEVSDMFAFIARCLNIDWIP
Type: biochemical
Method: Using 0.1 mM of benzyolxycarbonylglycylproline-β-naphthylamide as substrate and swine kidney-derived prolyl endopeptidase as enzyme, the enzyme was acted on the substrate at 37° C. for 30 minutes in 0.025 M Tris(hydroxymethyl)methane amine-hydrochloric acid (pH 7.5) solution. Fast Garnet was added to form a color and absorbance was measured at 525 nm. The inhibitory activity is expressed in terms of concentration required for 50% inhibition (IC50).
In the case of `O=C(NC1CCCC1)C(=O)C1CCCN1C(=O)C(Cc1ccccc1)NC(=O)c1cccc(Oc2ccccc2)c1` (stereo not shown) [Example 13, N-Cyclopentyl-2-oxo-2-[2-(1-(N-(3-phenoxybenzoyl)phenylalanyl)pyrrolidinyl)]acetamide], the “prolyl endopeptidase inhibition activity (in words)” value is reported as “potent inhibition activity on almost the same level”. For `O=C(NC1CCCCC1)C(=O)C1CCCN1C(=O)C(Cc1ccccc1)NC(=O)c1cccc(Oc2ccccc2)c1` (stereo not shown) [Example 28, N-Cyclohexyl-2-oxo-2-[2-(1-(N-(3-phenoxybenzoyl)phenylalanyl)pyrrolidinyl)]acetamide], the “prolyl endopeptidase inhibition activity (in words)” value was “potent inhibition activity on almost the same level”. For `O=C(NC1CCCCCC1)C(=O)C1CCCN1C(=O)C(Cc1ccccc1)NC(=O)c1cccc(Oc2ccccc2)c1` (stereo not shown) [Example 41, N-Cycloheptyl-2-oxo-2-[2-(1-(N-(3-phenoxybenzoyl)-phenylalanyl)pyrrolidinyl)]acetamide], the “prolyl endopeptidase inhibition activity (in words)” value was “potent inhibition activity on almost the same level”. In the case of `O=C(NC1CC1)C(=O)C1CCCN1C(=O)C(Cc1ccccc1)NC(=O)c1cccc(Oc2ccccc2)c1` (stereo not shown) [Example 108, N-Cyclopropyl-2-oxo-2-[2-(1-(N-(3-phenoxybenzoyl)phenylalanyl)pyrrolidinyl)]acetamide], the “prolyl endopeptidase inhibition activity (in words)” value is reported as “potent inhibition activity on almost the same level”. In the case of `O=C(NC1CCCCCCC1)C(=O)C1CCCN1C(=O)C(Cc1ccccc1)NC(=O)c1cccc(Oc2ccccc2)c1` (stereo not shown) [Example 113, N-Cyclooctyl-2-oxo-2-[2-(1-(N-(3-phenoxybenzoyl)phenylalanyl)pyrrolidinyl)]acetamide], the “prolyl endopeptidase inhibition activity (in words)” value is reported as “potent inhibition activity on almost the same level”.

Same assay, conditions: swine kidney prolyl endopeptidase, 0.1 mM substrate, 37° C., 30 minutes, pH 7.5
`CC(C)C(NC(=O)OCc1ccccc1)C(=O)N1CCCC1C(=O)C(=O)NC1CCCCC1` (stereo not shown) [Example 4, N-cyclohexyl-2-oxo-2-[2-(1-(N-benzyloxycarbonylvalyl)pyrrolidinyl)]acetamide] gave an IC50 of 1.09 nM. In the case of `CC(C)C(NC(=O)c1cccc(Oc2ccccc2)c1)C(=O)N1CCCC1C(=O)C(=O)NC1CCCCC1` (stereo not shown) [Example 7, N-cyclohexyl-2-oxo-2-[2-(1-(N-(3-phenoxybenzoyl)valyl)pyrrolidinyl)]acetamide], the IC50 is reported as 0.962 nM. For `CC(C)C(NC(=O)c1ccc2ccccc2n1)C(=O)N1CCCC1C(=O)C(=O)NC1CCCCC1` (stereo not shown) [Example 9, N-Cyclohexyl-2-oxo-2-[2-(1-(N-(2-quinolinecarbonyl)valyl)pyrrolidinyl)]acetamide], the IC50 was 1.34 nM. Compound `O=C(NC1CCCC1)C(=O)C1CCCN1C(=O)C(Cc1ccccc1)NC(=O)c1cccc(Oc2ccccc2)c1` (stereo not shown) [Example 13, N-Cyclopentyl-2-oxo-2-[2-(1-(N-(3-phenoxybenzoyl)phenylalanyl)pyrrolidinyl)]acetamide] has an IC50 of 1.48 nM. `CC(C)(C)OC(=O)NC(Cc1ccccc1)C(=O)N1CCCC1C(=O)C(=O)NC1CCCCC1` (stereo not shown) [Example 15, N-Cyclohexyl-2-oxo-2-[2-(1-(N-t-butoxycarbonylphenylalanyl)pyrrolidinyl)]acetamide] showed an IC50 of 3.18 nM. `O=C(NC1CCCCC1)C(=O)C1CCCN1C(=O)C(Cc1ccccc1)NC(=O)c1cccs1` (stereo not shown) [Example 18, N-Cyclohexyl-2-oxo-2-[2-(1-(N-(2-thenoyl)phenylalanyl)pyrrolidinyl)]acetamide] was tested, and the IC50 was 2.28 nM. `O=C(COc1ccccc1)NC(Cc1ccccc1)C(=O)N1CCCC1C(=O)C(=O)NC1CCCCC1` (stereo not shown) [Example 20, N-Cyclohexyl-2-oxo-2-[2-(1-(N-phenoxyacetylphenylalanyl)pyrrolidinyl)]acetamide] gave an IC50 of 1.58 nM. For `O=C(NC1CCCCC1)C(=O)C1CCCN1C(=O)C(Cc1ccccc1)NC(=O)c1ccc2ccccc2c1` (stereo not shown) [Example 22, N-Cyclohexyl-2-oxo-2-[2-(1-(N-(2-naphthoyl)phenylalanyl)pyrrolidinyl)]acetamide], the IC50 was 3.23 nM. In the case of `O=C(Cc1ccccn1)NC(Cc1ccccc1)C(=O)N1CCCC1C(=O)C(=O)NC1CCCCC1` (stereo not shown) [Example 24, N-Cyclohexyl-2-oxo-2-[2-(1-(N-(2-pyridyl)acetylphenylalanyl)pyrrolidinyl)]acetamide], the IC50 is reported as 2.24 nM. `O=C(NC1CCCCC1)C(=O)C1CCCN1C(=O)C(Cc1ccccc1)NC(=O)c1cccc(Oc2ccccc2)c1` (stereo not shown) [Example 28, N-Cyclohexyl-2-oxo-2-[2-(1-(N-(3-phenoxybenzoyl)phenylalanyl)pyrrolidinyl)]acetamide] showed an IC50 of 1.14 nM. `O=C(C=Cc1ccco1)NC(Cc1ccccc1)C(=O)N1CCCC1C(=O)C(=O)NC1CCCCC1` (stereo not shown) [Example 31, N-Cyclohexyl-2-oxo-2-[2-(1-(N-(3-(2-furyl)acryloyl)-phenylalanyl)pyrrolidinyl)]acetamide] gave an IC50 of 6.31 nM. In the case of `O=C(CCC1CCCCC1)NC(Cc1ccccc1)C(=O)N1CCCC1C(=O)C(=O)NC1CCCCC1` (stereo not shown) [Example 33, N-Cyclohexyl-2-oxo-2-[2-(1-(N-(3-cyclohexylpropionyl)-phenylalanyl)pyrrolidinyl)]acetamide], the IC50 is reported as 0.981 nM. `O=C(NC1CCCCCC1)C(=O)C1CCCN1C(=O)C(Cc1ccccc1)NC(=O)c1cccc(Oc2ccccc2)c1` (stereo not shown) [Example 41, N-Cycloheptyl-2-oxo-2-[2-(1-(N-(3-phenoxybenzoyl)-phenylalanyl)pyrrolidinyl)]acetamide] gave an IC50 of 1.38 nM. With `O=C(NC1CCCCC1)C(=O)C1CCCN1C(=O)C(Cc1ccccc1)NC(=O)c1ccccc1` (stereo not shown) [Example 43, N-Cyclohexyl-2-oxo-2-[2-(1-(N-benzoylphenylalanyl)pyrrolidinyl)]acetamide] the IC50 was 1.89 nM. For `O=C(NC(Cc1ccccc1)C(=O)N1CCCC1C(=O)C(=O)NC1CCCCC1)OCc1ccccc1` (stereo not shown) [Example 45, N-Cyclohexyl-2-oxo-2-[2-(1-(N-benzyloxycarbonylphenylalanyl)pyrrolidinyl)]acetamide], the IC50 was 2.37 nM. Work on `O=C(CSc1ccccc1)NC(Cc1ccccc1)C(=O)N1CCCC1C(=O)C(=O)NC1CCCCC1` (stereo not shown) [Example 47, N-Cyclohexyl-2-oxo-2-[2-(1-(N-(phenylthioacetyl)-phenylalanyl)pyrrolidinyl)]acetamide] yielded an IC50 of 1.53 nM. In the case of `O=C(NC1CCCCC1)C(=O)C1CCCN1C(=O)C(Cc1ccccc1)NC(=O)c1ccncc1` (stereo not shown) [Example 49, N-Cyclohexyl-2-oxo-2-[2-(1-(N-(isonicotinonyl)-phenylalanyl)pyrrolidinyl)]acetamide], the IC50 is reported as 6.5 nM. With `O=C(CSc1ccncc1)NC(Cc1ccccc1)C(=O)N1CCCC1C(=O)C(=O)NC1CCCCC1` (stereo not shown) [Example 51, N-Cyclohexyl-2-oxo-2-[2-(1-(N-(4-pyridylthioacetyl)-phenylalanyl)pyrrolidinyl)]acetamide] the IC50 was 2.68 nM. With `O=C(NC1CCCCC1)C(=O)C1CCCN1C(=O)C(Cc1ccccc1)NC(=O)c1cccnc1` (stereo not shown) [Example 53, N-Cyclohexyl-2-oxo-2-[2-(1-(N-(nicotinonyl)phenylalanyl)pyrrolidinyl)]acetamide] the IC50 was 4.2 nM. `O=C(NC1CCCCC1)C(=O)C1CCCN1C(=O)C1CCCN1C(=O)CSc1ccncc1` (stereo not shown) [Example 55, N-Cyclohexyl-2-oxo-2-[2-(1-(N-(4-pyridylthioacetyl)prolyl)pyrrolidinyl)]acetamide] showed an IC50 of 1.69 nM. With `O=C(NC1CCCCC1)C(=O)C1CCCN1C(=O)[C@H](Cc1ccccc1)NC(=O)c1ccc(CN2CCOCC2)cc1` (stereo partly shown) [Example 57, N-Cyclohexyl-2-oxo-2-[2-(1-(N-(4-morpholinomethylbenzoyl)phenylalanyl)pyrrolidinyl)]acetamide] the IC50 was 9.4 nM. In the case of `O=C(NC1CCCCC1)C(=O)C1CCCN1C(=O)CN(Cc1ccccc1)C(=O)c1ccncc1` (stereo not shown) [Example 60, N-Cyclohexyl-2-oxo-2-[2-(1-(N-isonicotinonyl-N-benzylglycyl)pyrrolidinyl)]acetamide], the IC50 is reported as 8.81 nM. `O=C(NC1CCCCC1)C(=O)C1CCCN1C(=O)c1ccc2ccccc2n1` (stereo not shown) [Example 66, N-Cyclohexyl-2-oxo-2-[2-(1-(2-quinolylcarbonyl)pyrrolidinyl)]acetamide] showed an IC50 of 26.4 nM. `O=C(NC1CCCCC1)C(=O)C1CCCN1C(=O)C=Cc1ccccc1` (stereo not shown) [Example 68, N-Cyclohexyl-2-oxo-2-[2-(1-cinnamoylpyrrolidinyl)]acetamide] gave an IC50 of 48 nM. `O=C(NC1CCCCC1)C(=O)C1CCCN1C(=O)C=Cc1ccc(Cl)cc1` (stereo not shown) [Example 70, N-Cyclohexyl-2-oxo-2-[2-(1-(3-(4-chlorophenyl)acryloyl)pyrrolidinyl)]acetamide] gave an IC50 of 111 nM. `O=C(NC1CCCCC1)C(=O)C1CCCN1C(=O)C=Cc1cccnc1` (stereo not shown) [Example 72, N-Cyclohexyl-2-oxo-2-[2-(1-(3-(3-pyridyl)acryloyl)pyrrolidinyl)]acetamide] gave an IC50 of 239 nM. With `O=C(NC1CCCCC1)C(=O)C1CCCN1C(=O)c1ccccn1` (stereo not shown) [Example 74, N-Cyclohexyl-2-oxo-2-[2-(1-(2-pyridylcarbonyl)pyrrolidinyl)]acetamide] the IC50 was 97.1 nM. `O=C(NC1CCCCC1)C(=O)C1CCCN1C(=O)c1cccc(Oc2ccccc2)c1` (stereo not shown) [Example 76, N-Cyclohexyl-2-oxo-2-[2-(1-(3-phenoxybenzoyl)pyrrolidinyl)]acetamide] showed an IC50 of 13.8 nM. In the case of `O=C(NC1CCCCCC1)C(=O)C1CCCN1C(=O)c1ccc2ccccc2c1` (stereo not shown) [Example 78, N-Cycloheptyl-2-oxo-2-[2-(1-(2-naphthoyl)pyrrolidinyl)]acetamide], the IC50 is reported as 23.4 nM. `O=C(NC1CCCCC1)C(=O)C1CCCN1C(=O)c1ccc(CN2CCCCC2)cc1` (stereo not shown) [Example 86, N-Cyclohexyl-2-oxo-2-[2-(1-(4-piperidinomethylbenzoyl)pyrrolidinyl)]acetamide] showed an IC50 of 82.2 nM. With `O=C(NC1CCCCC1)C(=O)C1CCCN1C(=O)c1ccc(Cn2ccnc2)cc1` (stereo not shown) [Example 88] the IC50 was 132 nM. Work on `O=C(NCc1nc2ccccc2[nH]1)C(=O)C1CCCN1C(=O)c1ccc(Cl)cc1` (stereo not shown) [Example 93, N-(2-Benzimidazolylmethyl)-2-oxo-2-[2-(1-(4-chlorobenzoyl)pyrrolidinyl)]acetamide] yielded an IC50 of 134 nM. `O=C(NCCN1CCOCC1)C(=O)C1CCCN1C(=O)c1ccc(Cl)cc1` (stereo not shown) [Example 95, N-(2-Morpholinoethyl)-2-oxo-2-[2-(1-(4-chlorobenzoyl)-pyrrolidinyl)]acetamide] showed an IC50 of 168 nM. For `O=C(NCCc1ccccn1)C(=O)C1CCCN1C(=O)c1ccc(Cl)cc1` (stereo not shown) [Example 97, N-(2-(2-Pyridyl)ethyl)-2-oxo-2-[2-(1-(4-chlorobenzoyl)pyrrolidinyl)]acetamide], the IC50 was 90.7 nM. With `O=C(NC1CC1)C(=O)C1CCCN1C(=O)C(Cc1ccccc1)NC(=O)c1cccc(Oc2ccccc2)c1` (stereo not shown) [Example 108, N-Cyclopropyl-2-oxo-2-[2-(1-(N-(3-phenoxybenzoyl)phenylalanyl)pyrrolidinyl)]acetamide] the IC50 was 1.33 nM. In the case of `O=C(NC1CCCCCCC1)C(=O)C1CCCN1C(=O)C(Cc1ccccc1)NC(=O)c1cccc(Oc2ccccc2)c1` (stereo not shown) [Example 113, N-Cyclooctyl-2-oxo-2-[2-(1-(N-(3-phenoxybenzoyl)phenylalanyl)pyrrolidinyl)]acetamide], the IC50 is reported as 1.59 nM. Compound `O=C(NC1CCCCC1)C(=O)C1CCCN1C(=O)C(Cc1ccccc1)NC(=O)c1ccc2ccccc2n1` (stereo not shown) [Example 115, N-Cyclohexyl-2-oxo-2-[2-(1-(N-(2-quinolylcarbonyl)phenylalanyl)pyrrolidinyl)]acetamide] has an IC50 of 2.09 nM. Compound `CC(=O)NC(Cc1ccccc1)C(=O)N1CCCC1C(=O)C(=O)NC1CCCCC1` (stereo not shown) [Example 118, N-Cyclohexyl-2-oxo-2-[2-(1-(N-acetylphenylalanyl)pyrrolidinyl)]acetamide] has an IC50 of 2.03 nM.
